In this assay the test system is MDA-MB-231 cells. The assay is described as follows: MTS proliferation assay on rigid or compliant substrates. Format: cell-based, human. The text has this: This motivated the hypothesis that blocking Gli-activity in metastatic breast tumors could obstruct their potential to establish in bone and adopt a bone-destructive phenotype. […] It is important to note the large variability in tumor burden inherent to the intracardiac model as evidenced by the large standard error. Even with this variability in consideration, there is significant tumor burden in the 10% Aln-GANT58 treated mice despite maintenance of high bone area (FIG. 18C). Based on the present inventors' previous studies reporting that both rigid mineralized bone matrix and TGF-β drive Gli2 expression in bone-metastatic cancer cell lines, it was hypothesized that GANT58-BTNP treatment may have a spatially heterogeneous effect on tumor cells that mirrors the spatial variation in Gli2 expression. Therefore, the effect of GANT58-BTNP treatment on tumor cell proliferation was measured by measuring Ki67 via IHC (FIG. 14F). […]
Proliferation Assay. […] Cell proliferation was determined by MTS assay using the CellTiter 96 Aqueous Non-Radioactive Cell Proliferation Assay kit (Promega) per the manufacturer's instructions. Absorbance values were measured at OD 490 nm on a plate reader and normalized to no cell controls in the respective GelMA coated and uncoated wells.

`c1cc(-c2sc(-c3ccncc3)c(-c3ccncc3)c2-c2ccncc2)ccn1` [GANT58]: for the setting “40 μM GANT58, GelMA gels”, the “proliferation of cells on compliant substrates” value was “not on compliant substrates”. The “proliferation of cells on rigid substrates” value (40 μM GANT58, tissue culture plastic) is listed as “significantly reduced”.

The record behind these values is US12648913B2, “Polymeric nanocarriers and methods of use thereof” (Vanderbilt University, priority 2019, dated 2026).
